# Assay results as given in ChEMBL document CHEMBL1135511, “Structure activity of 3-aryl-1,3-diketo-containing compounds as HIV-1 integrase inhibitors” (J Med Chem, 2002).
# How the values were obtained:
# [1] = target: T1, Human immunodeficiency virus type 1 integrase (Human immunodeficiency virus 1, UniProt Q7ZJM1)
# [2] = target: T1, Human immunodeficiency virus type 1 integrase; remark: listed apart in the source
# [3] = target: T1, Human immunodeficiency virus type 1 integrase; assay: Inhibitory effect on strand transfer of proximal DNA into host DNA in an extracellular HIV-1 integrase assay in experiment 1
# [4] = target: T1, Human immunodeficiency virus type 1 integrase; assay: Inhibitory effect on strand transfer of proximal DNA into host DNA in an extracellular HIV-1 integrase assay in experiment 2
# [5] = target: T1, Human immunodeficiency virus type 1 integrase; assay: Inhibitory effect on 3'-processing(3'-P) of proximal DNA in an extracellular HIV-1 integrase assay in experiment 1
# [6] = target: T1, Human immunodeficiency virus type 1 integrase; assay: Inhibitory effect on 3'-processing(3'-P) of proximal DNA in an extracellular HIV-1 integrase assay in experiment 2
# [7] = Inhibitory concentration by single cycle replication assay using envelope deficient HIV-1; format: functional, Homo sapiens
# T1 sequence (Q7ZJM1 whole entry): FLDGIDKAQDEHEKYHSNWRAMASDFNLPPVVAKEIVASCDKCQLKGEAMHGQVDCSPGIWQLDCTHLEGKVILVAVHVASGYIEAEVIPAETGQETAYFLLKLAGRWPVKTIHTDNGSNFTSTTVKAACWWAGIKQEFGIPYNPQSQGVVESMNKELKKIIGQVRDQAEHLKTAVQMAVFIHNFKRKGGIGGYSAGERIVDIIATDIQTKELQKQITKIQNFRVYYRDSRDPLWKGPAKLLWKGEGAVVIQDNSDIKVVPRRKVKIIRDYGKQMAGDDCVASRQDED
Structure (SMILES),IC50 [1] [µM],IC50 [2] [µM],other results
O=C(O)C(=O)/C=C(\O)c1cccc(/C(O)=C/C(=O)C(=O)O)c1,1.83,7.8,–
O=C(O)C(=O)/C=C(\O)c1cc(/C(O)=C/C(=O)C(=O)O)c2ccccc2n1,6.5,82,–
O=C(O)C(=O)/C=C(\O)c1c[nH]c2ccc(Cl)cc12,0.52,–,–
O=C(O)C(=O)/C=C(\O)c1ccc(Oc2ccccc2)cc1,–,> 100,IC50 [3]: 7.8 µM; IC50 [4]: 15 µM
CCOC(=O)C(=O)/C=C(\O)c1c[nH]c2ccc(Cl)cc12,6.9,> 100,–
O=C(O)C(=O)/C=C(\O)c1cccc(Br)c1,–,> 100,IC50 [3]: 2 µM; IC50 [4]: 3 µM
O=C(CC(=O)c1c[nH]c2ccc(F)cc12)c1nnn[nH]1,1.8,79,–
O=C(O)C(=O)/C=C(\O)c1ccc(/C(O)=C/C(=O)C(=O)O)cc1,1.28,–,IC50 [5]: 7.2 µM; IC50 [6]: 7.5 µM
COc1cc(Cn2nnnc2C(=O)/C=C(\O)c2c[nH]c3ccccc23)cc(OC)c1,> 100,> 100,–
O=C(O)C(=O)/C=C(\O)c1c[nH]c2ccccc12,1.43,> 100,–
O=C(CC(=O)c1c[nH]c2ccccc12)c1nnn[nH]1,–,> 100,IC50 [3]: 1.9 µM; IC50 [4]: 2 µM
COc1ccc(Cn2nnnc2C(=O)/C=C(\O)c2c[nH]c3ccc(Cl)cc23)cc1,34,> 100,–
O=C(O)c1ccc2[nH]cc(C(=O)CC(=O)c3nnn[nH]3)c2c1,40,40,–
O=C(O)C(=O)/C=C(\O)c1cccc(OCc2ccccc2)c1,0.35,–,IC50 [7]: 0.6 µM; IC50 [6]: 100 µM
COc1ccc(Cn2nnnc2C(=O)/C=C(\O)c2c[nH]c3ccccc23)cc1,> 100,> 100,–
O=C(O)C(=O)/C=C(\O)c1ccnc2ccccc12,> 100,> 100,–
O=C(O)C(=O)/C=C(\O)c1cc(OCc2ccccc2)cc(OCc2ccccc2)c1,0.48,> 1000,IC50 [7]: 2.3 µM
O=C(O)C(=O)/C=C(\O)c1cccc(NC(=O)c2ccccc2)c1,35,> 100,–
COc1ccc(Cn2nnnc2C(=O)/C=C(\O)c2cc(OCc3ccccc3)cc(OCc3ccccc3)c2)cc1,> 100,> 100,–
